The nature of assay [1]: The concentration of compound required to cause 50% hemolysis in the absence of complement. The class given is functional, Ovis aries.
Assay [2] is filed under the species Homo sapiens. The assay is described as follows: The concentration of compound required to inhibit complement induced hemolysis by 50%. The class given is functional.

A value given as a limit tells only on which side of the number the result lay.

`COc1cc(C(=O)O)cc2c1CC(C)(C)O2`: the EC50 in assay [1] was greater than 1350 µM. In assay [2], the half-maximal inhibitory concentration (IC50) is greater than 1350 µM.
Consider `CC1(C)Cc2c(Oc3ccccc3)cc(-c3nn[nH]n3)cc2O1`, for which, in assay [1], it took 650 µM to reach a half-maximal effect (EC50). The molecule also had a 50% inhibitory concentration (IC50) in assay [2] of 195 µM.
On the same counts, the results for `COc1cc(C=O)cc2c1CC(C)(C)O2` are greater than 1460 µM and 1100 µM.
In the case of `C[C@@H]1CCC2C(C)(C)[C@H](O)[C@H](O)C[C@]2(C)[C@@]12Cc1c(O)cc(C(=O)O)c(C=O)c1O2` (some centres not stated), the concentration giving a half-maximal response (EC50) in assay [1] is greater than 680 µM.
In assay [1], `COc1cc(-c2nn[nH]n2)cc2c1CC(C)(C)O2` showed a concentration giving a half-maximal response (EC50) greater than 1220 µM. In assay [2], this molecule had a 50% inhibitory concentration (IC50) of 245 µM.
On the same counts, the results for `CC1(C)Cc2c(Oc3ccccc3)cc(C=O)cc2O1` are greater than 1120 µM and greater than 1120 µM.
Molecule `CC1(C)Cc2c(O)cc(C=O)cc2O1` yielded a concentration giving a half-maximal response (EC50) in assay [1] greater than 1560 µM. In assay [2], the half-inhibitory concentration (IC50) was greater than 1560 µM.
`CC1(C)Cc2c(Oc3ccccc3)cc(C(=O)O)cc2O1` registered a 50% effective concentration (EC50) in assay [1] greater than 1060 µM. This molecule showed an IC50 in assay [2] greater than 1060 µM.
In the case of `CC1(C)Cc2c(O)cc(C(=O)O)cc2O1`, in assay [1], the EC50 was greater than 1440 µM. This molecule gave an IC50 in assay [2] greater than 1440 µM.

Source of the values: ChEMBL document CHEMBL1128786, “Design, synthesis and evaluation of C/D-ring analogs of the fungal metabolite K-76 as potential complement inhibitors” (Bioorg Med Chem Lett, 1995).
